Residues, ends and D or L forms follow the SMILES beside them.
Key:
[1] = tested on: BJ human skin fibroblast cells; test: WST-1 metabolic activity assay (cell viability); settings: lowest concentration causing <70% metabolic activity (WST-1); BJ fibroblasts; 24 h; DMEM with 2% FBS; 0.05-60 µM
Description: BJ human skin fibroblast cells (ATCC CRL-2522; RRID: CVCL_3653; LGC Standards, Germany (September 2023)) were cultured in Dulbecco’s Modified Eagle Medium (DMEM; Gibco, Waltham, MA, USA) supplemented with 10% (v/v) foetal bovine serum (FBS; Sigma-Aldrich) and 1% (v/v) penicillin/streptomycin (pen/strep; Gibco). Cell suspensions (5 × 10^5 cells/mL) were seeded into 96-well plates (100 μL/well; Thermo Scientific, Waltham, MA, USA) and allowed to adhere for 24 h. Monolayers were then exposed to two-fold serial dilutions of GDST peptides, their RI variants, and reference peptides (final concentrations: 0.05 to 60 µM) in fresh DMEM with 2% (v/v) FBS for 24 h at 37 °C in a humidified atmosphere with 5% CO2.
Cell viability and membrane integrity were assessed using the water-soluble tetrazolium salt (WST-1; Roche, Basel, Switzerland) assay and the lactate dehydrogenase (LDH; Abcam, Cambridge, UK) assay, respectively, according to manufacturer instructions. Results were expressed as percentages of metabolic activity and LDH leakage relative to untreated control cells and the positive lysis control, respectively. The cytotoxic concentration was defined as the lowest peptide concentration causing <70% metabolic activity and >30% LDH leakage. All experiments were performed in triplicate.

S. aureus JAR060131 = test: microbe, parasite or virus in culture; assay type: cell-based, Staphylococcus aureus; settings: RPMI, 18 h
Description: (§1) The potential for resistance development to GDST-038, GDST-045, and their RI variants was assessed as described by Habets and Brockhurst. Resistance development to the antibiotics rifampicin and ciprofloxacin (both from Sigma-Aldrich) was evaluated for comparison. Briefly, 10 μL of a mid-logarithmic phase culture of A. baumannii RUH875 or S. aureus JAR060131 was added to 90 μL of peptide (final concentrations: 0.23 to 120 μM) or antibiotic (final concentrations: 0.03 to 256 μg/mL) solution in RPMI, in 96-well polypropylene round-bottom plates (Costar). All incubations were performed in quadruplicate. Plates were sealed with breathable seals (Greiner) and incubated at 37 °C with shaking at 120 rpm in a humidified environment for 18 h (S. aureus) or 48 h (A. baumannii).
(§2) The minimum inhibitory concentration (MIC), defined as the lowest concentration that inhibited visible bacterial growth, was then determined. Subsequently, 2 μL from the 0.5-fold MIC condition was transferred to fresh medium containing a concentration series ranging from 0.5- to 8-fold the new MIC. This procedure was repeated over 22 consecutive passages to monitor resistance development.

A. baumannii RUH875 = test: microbe, parasite or virus in culture; assay type: cell-based, Acinetobacter baumannii; settings: RPMI, 48 h
Description: as §1, §2

[2] = tested on: A. baumannii RUH875 biofilm; test: Biofilm killing; assay type: cell-based, Acinetobacter baumannii; settings: for Concentration killing ≥3 log CFU of A. baumannii biofilm within 2 h / Concentration giving complete eradication of A. baumannii biofilm, 24 h treatment: 24 h biofilm; for Concentration killing ≥3 log CFU of A. baumannii biofilm within 2 h: 2 h treatment in PBS, 1.88-120 μM, vs untreated biofilm; for Concentration giving complete eradication of A. baumannii biofilm, 24 h treatment: 24 h treatment in PBS; for A. baumannii biofilm killing, 24 h treatment (in words): up to 120 µM
Description: Mid-logarithmic phase cultures of A. baumannii RUH875 or S. aureus JAR060131 were diluted to 1 × 10^8 CFU/mL in RPMI supplemented with 1% glucose. A total of 100 μL of each suspension was added to flat-bottom polystyrene 96-well microplates (Costar) and incubated under static conditions at 37 °C in a humidified atmosphere for 24 h to allow biofilm formation. After 24 h, planktonic bacteria were removed, and wells were carefully washed with 100 μL PBS [60]. […] Control samples were exposed to 100 μL of PBS only.
Biofilms were treated at 37 °C for either 2 or 24 h. […] Plates were sealed and sonicated for 5 min (Elmasonic, Singen, Germany; 45 kHz) at room temperature to dislodge adherent bacteria. […] Quantitative cultures were performed by plating serial 10-fold dilutions on sheep blood agar, and results were expressed as log10 CFU per well. The lower limit of detection was three CFU. Each condition was tested in six replicates.

Row | Compound | Cytotoxicity Metabolic Activity <70% [1] [µM] | MIC S. aureus, constant throughout all passages (S. aureus JAR060131; 22 passages) [µM] | MIC A. baumannii at passage 16 (peak) (A. baumannii RUH875) [µM] | MIC A. baumannii at the 1st passage (A. baumannii RUH875; median of four replicates) [µM] | MIC A. baumannii at the 22nd passage (A. baumannii RUH875; serial passage at sub-inhibitory concentrations) [µM] | Concentration killing ≥3 log CFU of A. baumannii biofilm within 2 h [2] [µM] | Reduction in A. baumannii biofilm CFU, 24 h treatment ([2]; at ≥60 µM, 24 h treatment) [log] | Concentration giving complete eradication of A. baumannii biofilm, 24 h treatment [2] [µM] | MIC S. aureus at the 22nd passage (S. aureus JAR060131) [µM] | MIC S. aureus at the 1st passage (S. aureus JAR060131; median of four replicates) [µM] | MIC A. baumannii, stable over 22 passages (A. baumannii RUH875) [µM] | A. baumannii biofilm killing, 24 h treatment (in words) ([2]; 24 h treatment)
1 | Ac-KRWVKILKKVWRFL-NH2 [GDST-045] | 3.75 | 0.47 | 7.50 | 0.94 | 0.47 | 60 | 3.5 |  |  |  |  | 
2 | CC[C@@H](C)[C@@H](NC(=O)[C@@H](C)NC(=O)[C@@H](CCCCN)NC(=O)[C@@H](CCCCN)NC(=O)[C@@H](Cc1c[nH]c2ccccc12)NC(=O)[C@@H](Cc1c[nH]c2ccccc12)NC(=O)[C@@H](CCCNC(=N)N)NC(=O)[C@@H](CC(C)C)NC(=O)[C@@H](CC(C)C)NC(C)=O)C(=O)N[C@H](CCCCN)C(=O)N[C@@H](C(=O)N[C@H](Cc1c[nH]c2ccccc12)C(=O)N[C@H](CCCNC(=N)N)C(=O)N[C@H](CCCCN)C(N)=O)C(C)C [GDST-038-RI] (HELM PEPTIDE1{[ac].[dL].[dL].[dR].[dW].[dW].[dK].[dK].[dA].[dI].[dK].[dV].[dW].[dR].[dK].[am]}$$$$V2.0; N-terminus and C-terminus assumed) | 3.75 |  |  |  |  | 60 |  | ≥ 60 |  |  |  | 
3 | Ac-KRWVKIAKKWWRLL-NH2 [GDST-038] | 3.75 |  |  |  |  | 120 |  |  | 1.88 | 0.94 | 0.47 | did not cause significant biofilm CFU reduction
4 | CC[C@@H](C)[C@@H](NC(=O)[C@@H](CC(C)C)NC(=O)[C@@H](CCCCN)NC(=O)[C@@H](CCCCN)NC(=O)[C@H](NC(=O)[C@@H](Cc1c[nH]c2ccccc12)NC(=O)[C@@H](CCCNC(=N)N)NC(=O)[C@@H](Cc1ccccc1)NC(=O)[C@@H](CC(C)C)NC(C)=O)C(C)C)C(=O)N[C@H](CCCCN)C(=O)N[C@@H](C(=O)N[C@H](Cc1c[nH]c2ccccc12)C(=O)N[C@H](CCCNC(=N)N)C(=O)N[C@H](CCCCN)C(N)=O)C(C)C [GDST-045-RI] (HELM PEPTIDE1{[ac].[dL].[dF].[dR].[dW].[dV].[dK].[dK].[dL].[dI].[dK].[dV].[dW].[dR].[dK].[am]}$$$$V2.0; N-terminus and C-terminus assumed) | 3.75 |  |  |  |  | ≥ 30 |  | 120 |  |  |  | 
5 | Ac-LKRVWKRVFKLLKRYWRQLKKPVR-NH2 (N-terminus and C-terminus assumed) [SAAP-148, reference compound] | 3.75 |  |  |  |  | ≥ 15 |  |  |  |  |  | complete eradication
